Like-named read-outs stand apart in the source and are kept apart here.
What was measured:
[1] = tested on: T1, Plasmodium falciparum Dd2^Dd2crt; test: microbe, parasite or virus in culture; set-up: species or system P. falciparum in human red blood cells; asexual blood stage growth inhibition, flow cytometry with SYBR Green I and MitoTracker Deep Red; conditions: DD2, Erythrocyte, 72 h
T1 construct: Dd2
Method: Susceptibility to all drugs tested in this study was measured by incubating asynchronous, ABS parasites plated at 0.2% to 0.3% parasitemia (or 0.8% for the poorly growing ZY19489-resistant lines harboring the pfcrt N246H allele) and 1% hematocrit at 37 °C in 96-well plates. The assays were set up across a range of drug concentrations with two-fold dilutions. For the experiments testing for susceptibility of recrudescent parasite lines that emerged in humanized NSG mice to ZY19489, M5717, MMV693183, or ferroquine, parasites were cultured at 2% hematocrit in human O^+ or A^+ RBCs in RPMI-1640 media, supplemented with 25 mM HEPES (Fisher), 50 mg/L hypoxanthine (Sigma Aldrich), 2 mM L-glutamine (Cambridge Isotope Laboratories, Inc.), 0.21% sodium bicarbonate (Sigma Aldrich), 0.5% (w/v) Albumax (Invitrogen), 8% filtered, heat-inactivated, pooled off-the-clot AB^+ human serum (Interstate Blood Bank or New York Blood Center), and 10 μg/mL gentamicin (Fisher). The parental P. falciparum Pf3D7^0087/N9 strain that has been adapted to proliferate in this humanized NSG mouse model was cultured in parallel as the drug-sensitive control strain. All compound susceptibility assays for the recrudescent lines and parental control strain were performed using 8% serum-containing medium. Parasite growth in each well was assessed after 72 h using flow cytometry of cultures stained with SYBR Green I and MitoTracker Deep Red (Supplementary Fig. S12). IC50 and IC90 values were derived from growth inhibition data using nonlinear regression analysis (GraphPad Prism 7) or linear interpolation (assays for recrudescent lines from humanized mice). Unless otherwise stated, assays were performed on four independent occasions with technical duplicates, and statistical comparisons were made using two-tailed Mann–Whitney U tests. Gated RBCs 97.0% Live parasites 3.80% A B Forward scatter (FSC-H) MitoTracker Deep Red Supplementary Fig. 12: Gating strategy for flow cytometry-based quantification of P. falciparum asexual blood stage parasite proliferation in drug susceptibility and growth rate assays. Intra-erythrocytic parasites were seeded at 0.3% - 0.8% parasitemia and 1% hematocrit for 72 hours in the presence of a range of drug concentrations that had been 2-fold serially diluted in duplicates along with drug-free controls. Cells were then labeled with 1× SYBR Green (Invitrogen) and 100 nM MitoTracker Deep Red FM (Invitrogen) as nuclear stain and vital dyes, respectively. Parasite survival was assessed by flow cytometry on an Intellicyt iQue3 (Essen Bioscience). Between 9,000 and 15,000 events were counted per sample. […] (A) Forward (FSC-H) and side scatter (SSC-H) gating of the total red blood cell (RBC) population, representing 97.0% of the total events counted. (B) Gating strategy used to quantify viable intracellular parasites, which are positively stained by both MitoTracker Deep Red and SYBR Green I and appear as events in the upper right gate (live parasites, 3.80% parasitemia). Uninfected erythrocytes appear in the lower left gate as MitoTracker Deep Red and SYBR Green I negative populations.

[2] = target: T2, P. falciparum chloroquine resistance transporter (PfCRT), 7G8 + F145I isoform (Plasmodium falciparum, UniProt W7FI62, F145I); test: […] [3H]PPQ uptake in PfCRT proteoliposomes; type: biochemical
T2 construct: gene CRT; purified PfCRT 7G8 + F145I reconstituted in proteoliposomes
T2 sequence (W7FI62 whole entry F145I, canonical isoform): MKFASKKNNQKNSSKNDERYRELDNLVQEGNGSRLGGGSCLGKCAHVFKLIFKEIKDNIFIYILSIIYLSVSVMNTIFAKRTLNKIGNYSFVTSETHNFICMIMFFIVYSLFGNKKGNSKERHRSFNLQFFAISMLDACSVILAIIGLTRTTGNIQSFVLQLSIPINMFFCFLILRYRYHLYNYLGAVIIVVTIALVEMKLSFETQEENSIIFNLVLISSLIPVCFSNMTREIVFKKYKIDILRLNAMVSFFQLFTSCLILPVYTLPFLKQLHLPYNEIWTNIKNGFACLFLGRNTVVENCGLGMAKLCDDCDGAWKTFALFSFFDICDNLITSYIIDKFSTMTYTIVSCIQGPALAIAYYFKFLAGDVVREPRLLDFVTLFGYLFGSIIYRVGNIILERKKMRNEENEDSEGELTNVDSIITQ

[3] = target: T3, P. falciparum chloroquine resistance transporter (PfCRT), 7G8 isoform (Plasmodium falciparum, UniProt W7FI62); test: […] [3H]CQ uptake in PfCRT proteoliposomes; type: biochemical
T3 construct: gene CRT; purified PfCRT 7G8 reconstituted in proteoliposomes
T3 sequence (W7FI62 whole entry, canonical isoform): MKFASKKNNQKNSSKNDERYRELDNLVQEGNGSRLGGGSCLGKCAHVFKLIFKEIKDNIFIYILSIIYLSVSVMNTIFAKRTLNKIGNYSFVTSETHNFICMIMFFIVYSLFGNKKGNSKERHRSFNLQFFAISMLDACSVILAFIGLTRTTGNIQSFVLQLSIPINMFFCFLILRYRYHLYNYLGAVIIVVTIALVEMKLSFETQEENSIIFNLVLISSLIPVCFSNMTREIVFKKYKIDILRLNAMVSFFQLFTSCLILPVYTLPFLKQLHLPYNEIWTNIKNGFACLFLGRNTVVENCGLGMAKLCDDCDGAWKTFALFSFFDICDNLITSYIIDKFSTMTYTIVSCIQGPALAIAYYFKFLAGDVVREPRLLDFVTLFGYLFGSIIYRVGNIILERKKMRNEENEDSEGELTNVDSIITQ

[4] = tested on: T4, Plasmodium falciparum TAD_022; test: microbe, parasite or virus in culture; set-up: species or system P. falciparum 3D7^0087/N9 in human red blood cells; asexual blood stage growth inhibition in 8% human serum medium, flow cytometry; conditions: Erythrocyte, 72 h; for IC50: read-out: IC50 ± SEM (nM); for IC90: read-out: IC90 ± SEM (nM)
T4 construct: 3D7^0087/N9 (TAD_022)
Method: Susceptibility to all drugs tested in this study was measured by incubating asynchronous, ABS parasites plated at 0.2% to 0.3% parasitemia (or 0.8% for the poorly growing ZY19489-resistant lines harboring the pfcrt N246H allele) and 1% hematocrit at 37 °C in 96-well plates. The assays were set up across a range of drug concentrations with two-fold dilutions. For the experiments testing for susceptibility of recrudescent parasite lines that emerged in humanized NSG mice to ZY19489, M5717, MMV693183, or ferroquine, parasites were cultured at 2% hematocrit in human O^+ or A^+ RBCs in RPMI-1640 media, supplemented with 25 mM HEPES (Fisher), 50 mg/L hypoxanthine (Sigma Aldrich), 2 mM L-glutamine (Cambridge Isotope Laboratories, Inc.), 0.21% sodium bicarbonate (Sigma Aldrich), 0.5% (w/v) Albumax (Invitrogen), 8% filtered, heat-inactivated, pooled off-the-clot AB^+ human serum (Interstate Blood Bank or New York Blood Center), and 10 μg/mL gentamicin (Fisher). The parental P. falciparum Pf3D7^0087/N9 strain that has been adapted to proliferate in this humanized NSG mouse model was cultured in parallel as the drug-sensitive control strain. All compound susceptibility assays for the recrudescent lines and parental control strain were performed using 8% serum-containing medium. Parasite growth in each well was assessed after 72 h using flow cytometry of cultures stained with SYBR Green I and MitoTracker Deep Red (Supplementary Fig. S12). IC50 and IC90 values were derived from growth inhibition data using nonlinear regression analysis (GraphPad Prism 7) or linear interpolation (assays for recrudescent lines from humanized mice). Unless otherwise stated, assays were performed on four independent occasions with technical duplicates, and statistical comparisons were made using two-tailed Mann–Whitney U tests. To assess potential cross-resistance between M5717 and ZY19489, we tested three M5717-resistant lines (TAD_470, TAD_462, and TAD_464), which harbored distinct PfeEF2 mutations (I183M, P754S, and I182T, respectively), for susceptibility to ZY19489.

[5] = target: T2, P. falciparum chloroquine resistance transporter (PfCRT), 7G8 + F145I isoform; test: inhibition of [3H]PPQ uptake in PfCRT proteoliposomes; type: biochemical; conditions: read-out: % inhibition of [3H]PPQ transport at 1 μM

`COC(=O)[C@H](CCCN=C(NC(=O)OCOC(=O)Cc1ccccc1)NC(=O)OCOC(=O)Cc1ccccc1)NS(=O)(=O)c1ccc(C)cc1` [pro-TAME] showed an IC50 ([1]; read-out: IC50) of 58400 ± 7100 nM and an IC90 ([1]; read-out: IC90) of 91000 ± 11300 nM.
Compound `O=C1CCC(N2C(=O)c3ccccc3C2=O)C(=O)N1` (stereo not drawn) [Thalidomide] has an IC50 ([1]; read-out: IC50 (nM)) of 85200 ± 5060 nM and an IC90 ([1]; read-out: IC90 (nM)) of 115700 ± 1110 nM.
`CCNCc1cc(Nc2ccnc3cc(Cl)ccc23)ccc1O` [DEAQ, mono-desethylamodiaquine] was tested, and the IC50 ([1]; read-out: DEAQ IC50) was 43.8 ± 5.9 nM and the IC90 ([1]; read-out: DEAQ IC90) was 78.7 ± 8.8 nM.
For `Clc1ccc2c(N3CCN(CCCN4CCN(c5ccnc6cc(Cl)ccc56)CC4)CC3)ccnc2c1` [PPQ, piperaquine], the IC50 ([1]; read-out: PPQ IC50) was 12 ± 1 nM, the IC90 ([1]; read-out: PPQ IC90) was 22.3 ± 4.6 nM and the “100 nM [3H]PPQ uptake in PfCRT proteoliposomes” value [2] was “interference was also observed against [^3H]PPQ transport by the PPQ-resistant isoform 7G8 + F145I”.
With `CCN(CC)CCCC(C)Nc1ccnc2cc(Cl)ccc12` (stereo not drawn) [CQ, chloroquine] the “100 nM [3H]CQ uptake in PfCRT proteoliposomes” value [3] was “[^3H]CQ transport by the CQ-resistant 7G8 isoform”, the IC50 ([1]; read-out: CQ IC50) was 104 ± 5.7 nM and the IC90 ([1]; read-out: CQ IC90) was 217 ± 11.3 nM. For the same compound, the IC50 ([1]; read-out: IC50 (nM)) was 94.6 ± 6.6 nM and the IC90 ([1]; read-out: IC90 (nM)) was 177 ± 24.1 nM.
`O=C1C(O)=C([C@H]2CC[C@H](c3ccc(Cl)cc3)CC2)C(=O)c2ccccc21` [ATQ, atovaquone] was tested, and the IC50 ([1]; read-out: ATQ IC50) was 2.5 ± 0.4 nM and the IC90 ([1]; read-out: ATQ IC90) was 5.3 ± 0.7 nM.
With `Cc1nc(Nc2ncc(N3CCN(C)[C@H](C)C3)c(Nc3cc(C)n(C)n3)n2)cc(C2CC2)c1F` [ZY19489] the IC50 [4] was 7.2 ± 0.9 nM, the IC90 [4] was 17.1 ± 1.1 nM and the inhibition at 1 µM [5] was 79%.
`C[C@H]1[C@@H](O)O[C@@H]2O[C@@]3(C)CC[C@H]4[C@H](C)CC[C@@H]1[C@@]24OO3` [DHA, dihydroartemisinin] gave an IC50 ([1]; read-out: DHA IC50) of 2.6 ± 0.2 nM and an IC90 ([1]; read-out: DHA IC90) of 4.7 ± 0.6 nM.
`O=C(NCCN1CCCC1)c1cc(-c2ccc(CN3CCOCC3)cc2)nc2ccc(F)cc12` [M5717] showed an IC50 [4] of 0.4 ± 0.01 nM and an IC90 [4] of 0.8 ± 0.1 nM.
Compound `COc1ccc(C2=N[C@@H](c3ccc(Cl)cc3)[C@@H](c3ccc(Cl)cc3)N2C(=O)N2CCNC(=O)C2)c(OC(C)C)c1` [Nutlin-3] has an IC50 ([1]; read-out: IC50 (nM)) of 5660 ± 511 nM and an IC90 ([1]; read-out: IC90 (nM)) of 9130 ± 714 nM.
`CCCCN(CCCC)CC(O)c1cc(Cl)cc2c1-c1ccc(Cl)cc1/C2=C/c1ccc(Cl)cc1` (stereo not drawn) [LMF, lumefantrine] gave an IC50 ([1]; read-out: LMF IC50) of 6 ± 1.2 nM and an IC90 ([1]; read-out: LMF IC90) of 11.2 ± 1.8 nM.
